Laboratory results taken from patent publication US20070232601A1, “Vla-4 Inhibitor” (priority 2004, published 2007).

Target: T1, hα4 and β1 integrins (VLA-4) (Homo sapiens, UniProt P05556+P13612)
T1 construct: expressed in transfected cells; host or cells: CHO cells
Test: In vitro evaluation: inhibition of binding of CHO cells expressing hα4 and β1 integrins to Eu3+-hVCAM-1 D1D7-IgG
Settings: ligand Eu3+-hVCAM-1 D1D7-IgG 2 nM, Ki calculated from IC50
Procedure: CHO cells which were forced to be expressed by transduction of hα4 and β1 integrins are seeded (3×10^4 cells/100 μl/well) on a Costar 3599 plate, and cultured for 2 days. A medium is washed with a buffer A* two times, and Eu^3+-hVCAM-1 D1D7-IgG which was diluted with an assay buffer A** to 2 nM is added at 50 μl/well. A test substance which was diluted with 2% DMSO-assay buffer (in the presence or the absence of 6% human serum albumin) is added at 50 μl/well (A solution which was separately diluted is added to a well in which Scatchard analysis is performed), this is stirred with a plate mixer for 5 minutes, and allowed to stand at room temperature for 1 hour. Thereafter, this is washed with a buffer A four times, a potentiating reagent (manufactured by DELFIA) is added at 100 μl/well, this is shaken for 5 minutes using a plate mixer, and a fluorescence intensity is measured with a time-resolved fluorometer (DELFIA Wallac). IC50 (concentration at which binding of CHO cell and Eu^3+-hVCAM-1 D1D7-IgG is inhibited by 50%) of a test substance is obtained from an integration rate obtained from a calculation equation: [(FT−FNS)−(FI−FNS)]/[(FT−FNS)]×100, wherein FT indicates a fluorescence intensity of a well not containing a test substance, FNS indicates a fluorescence intensity of a well not containing a test substance and hVCAM-1 D1D7-IgG, and FI indicates a fluorescence intensity containing a test substance. A Kd value showing strength of binding and Bmax (maximum binding amount) were presumed in a range of 0.06 to 20 nM according to the Scachard analysis method. [formula]
A Ki value was calculated according to the above equation ([L] is ligand concentration)
[* buffer A: 25 mM HEPES (pH 7.5), 150 mM NaCl, 1 mM Ca^2+, 1 mM Mg^2+, 4 mM Mn^2+; ** assay buffer: 25 mM HEPES (pH 7.5), 150 mM NaCl, 1 mM Ca^2+, 1 mM Mg^2+, 4 mM Mn^2+, 0.1% BSA, 20 μM DTPA, with/without 6% ALBUMIN, HUMAN SERUM (C/NA-1653, SIGMA)]

T1 sequence (P13612 34-1032): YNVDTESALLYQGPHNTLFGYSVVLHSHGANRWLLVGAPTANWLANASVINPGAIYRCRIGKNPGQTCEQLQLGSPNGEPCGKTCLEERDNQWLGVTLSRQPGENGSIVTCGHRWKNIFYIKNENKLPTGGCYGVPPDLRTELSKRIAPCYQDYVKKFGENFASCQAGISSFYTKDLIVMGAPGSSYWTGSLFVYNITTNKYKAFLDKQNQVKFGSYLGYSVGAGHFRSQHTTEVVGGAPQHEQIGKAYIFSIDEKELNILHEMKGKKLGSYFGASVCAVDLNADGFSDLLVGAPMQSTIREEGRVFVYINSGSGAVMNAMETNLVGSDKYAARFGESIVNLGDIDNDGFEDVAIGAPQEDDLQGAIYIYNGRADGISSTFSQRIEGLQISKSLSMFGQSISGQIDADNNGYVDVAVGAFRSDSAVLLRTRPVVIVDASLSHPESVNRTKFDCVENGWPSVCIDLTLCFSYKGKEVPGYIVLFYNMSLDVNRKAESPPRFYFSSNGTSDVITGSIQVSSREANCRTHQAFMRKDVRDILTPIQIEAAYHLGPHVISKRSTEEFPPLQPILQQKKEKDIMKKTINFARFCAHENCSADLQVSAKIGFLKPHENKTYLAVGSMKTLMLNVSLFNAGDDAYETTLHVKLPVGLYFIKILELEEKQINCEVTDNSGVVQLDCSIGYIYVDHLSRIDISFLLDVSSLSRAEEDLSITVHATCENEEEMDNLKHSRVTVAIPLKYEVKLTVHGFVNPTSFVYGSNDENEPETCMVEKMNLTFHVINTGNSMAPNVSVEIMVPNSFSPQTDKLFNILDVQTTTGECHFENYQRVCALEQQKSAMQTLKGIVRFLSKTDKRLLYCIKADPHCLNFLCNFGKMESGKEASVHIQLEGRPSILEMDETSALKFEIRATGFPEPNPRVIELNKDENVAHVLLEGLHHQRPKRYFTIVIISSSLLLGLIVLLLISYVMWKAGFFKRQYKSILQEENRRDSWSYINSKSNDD
T1 sequence (P05556 21-798): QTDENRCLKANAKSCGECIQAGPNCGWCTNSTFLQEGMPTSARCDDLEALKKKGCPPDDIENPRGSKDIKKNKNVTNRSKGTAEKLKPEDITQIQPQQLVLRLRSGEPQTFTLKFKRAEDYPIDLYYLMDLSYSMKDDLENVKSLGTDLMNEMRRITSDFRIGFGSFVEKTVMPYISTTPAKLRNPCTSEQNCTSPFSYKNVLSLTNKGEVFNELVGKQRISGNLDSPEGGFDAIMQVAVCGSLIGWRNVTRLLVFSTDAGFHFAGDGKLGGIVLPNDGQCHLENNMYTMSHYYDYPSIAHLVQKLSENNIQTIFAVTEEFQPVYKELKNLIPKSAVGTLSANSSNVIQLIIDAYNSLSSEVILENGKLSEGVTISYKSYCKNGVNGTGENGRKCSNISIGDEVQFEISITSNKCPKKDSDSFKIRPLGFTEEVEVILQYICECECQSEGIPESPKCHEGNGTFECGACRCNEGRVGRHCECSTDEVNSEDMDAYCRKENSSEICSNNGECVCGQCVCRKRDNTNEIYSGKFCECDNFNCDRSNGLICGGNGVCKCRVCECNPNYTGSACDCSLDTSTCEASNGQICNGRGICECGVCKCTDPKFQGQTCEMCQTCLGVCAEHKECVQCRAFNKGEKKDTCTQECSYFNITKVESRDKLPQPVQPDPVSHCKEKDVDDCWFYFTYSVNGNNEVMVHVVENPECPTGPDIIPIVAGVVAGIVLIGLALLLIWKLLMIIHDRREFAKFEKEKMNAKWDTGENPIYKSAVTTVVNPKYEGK

Compound	Ki
Cn1cc(C(=O)Nc2cc(F)c(CC(=O)N3[C@H](c4ncc(CCC(=O)O)s4)C[C@@H]4CCCC[C@@H]43)cc2Cl)c2ccccc21 [Example 59, 3-[2-[1-[5-Chloro-2-fluoro-4-(1-methyl-3-indolylcarbonyl)aminophenylacetyl]-(2S)-octahydroindolyl]-5-thiazolyl]propionic acid]	17 nM
Cc1ccc(F)cc1Nc1nc2ccc(CC(=O)N3[C@H](c4ncc(CCC(=O)O)s4)C[C@@H]4CCCC[C@@H]43)c(F)c2o1 [Example 62, 3-[2-[1-[7-Fluoro-2-(5-fluoro-2-methylphenyl)amino-6-benzoxazolylacetyl]-(2S)-octahydroindolyl]-5-thiazolyl]propionic acid]	2.3 nM
CCO[C@H]1CCN(C(=O)Cc2ccc3nc(Nc4cc(F)ccc4C)oc3c2F)[C@@H]1c1ncc(CCC(=O)O)o1 [Example 103, 3-[2-[1-[[7-Fluoro-2-(5-fluoro-2-methylphenyl)amino-6-benzoxazolyl]acetyl]-(3S)-ethoxy-(2S)-pyrrolidinyl]-5-oxazolyl]propionic acid]	2.6 nM
CCO[C@H]1CCN(C(=O)Cc2ccc3nc(Nc4ccccc4C)oc3c2)[C@@H]1c1ncc(CCC(=O)O)o1 [Example 104, 3-[2-[1-[[2-(2-Methylphenyl)amino-6-benzoxazolyl]acetyl]-(3S)-ethoxy-(2S)-pyrrolidinyl]-5-oxazolyl]propionic acid]	4.5 nM
CCO[C@H]1CCN(C(=O)Cc2ccc3nc(Nc4cc(F)ccc4OC)oc3c2F)[C@@H]1c1ncc(CCC(=O)O)o1 [Example 105, 3-[2-[1-[[7-Fluoro-2-(5-fluoro-2-methoxyphenyl)amino-6-benzoxazolyl]acetyl]-(3S)-ethoxy-(2S)-pyrrolidinyl]-5-oxazolyl]propionic acid]	11 nM
CCO[C@H]1CCN(C(=O)Cc2ccc3nc(Nc4ccccc4OC)oc3c2)[C@@H]1c1ncc(CCC(=O)O)o1 [Example 106, 3-[2-[1-[[2-(2-Methoxyphenyl)amino-6-benzoxazolyl]acetyl]-(3S)-ethoxy-(2S)-pyrrolidinyl]-5-oxazolyl]propionic acid]	21 nM
CO[C@H]1C[C@@H](c2ncc(CCC(=O)O)s2)N(C(=O)Cc2ccc(Nc3nc4c(Cl)cccc4s3)c(Cl)c2)C1 [Example 114, 3-[2-[1-[4-(4-Chloro-2-benzothiazolyl)amino-3-chlorophenyl]acetyl-(4S)-methoxy-(2S)-pyrrolidinyl]-5-thiazolyl]propionic acid]	6.9 nM
O=C(O)CCc1cnc([C@@H]2[C@@H](O)CCN2C(=O)Cc2ccc(Nc3nc4ccccc4o3)c(Cl)c2)s1 [Example 116, 3-[2-[1-[4-(2-Benzoxazolyl)amino-3-chlorophenyl]acetyl-(3S)-hydroxy-(2S)-pyrrolidinyl]-5-thiazolyl]propionic acid]	40 nM
O=C(O)CCc1cnc([C@@H]2[C@@H](O)CCN2C(=O)Cc2cc(Cl)c(Nc3nc4ccccc4o3)cc2F)s1 [Example 117, 3-[2-[1-[4-(2-Benzoxazolyl)amino-5-chloro-2-fluorophenyl]acetyl-(3S)-hydroxy-(2S)-pyrrolidinyl]-5-thiazolyl]propionic acid]	35 nM
O=C(O)CCc1cnc([C@@H]2[C@@H](O)CCN2C(=O)Cc2cc(Cl)c(Nc3nc4ccccc4o3)cc2Cl)s1 [Example 118, 3-[2-[1-[4-(2-Benzoxazolyl)amino-2,5-dichlorophenyl]acetyl-(3S)-hydroxy-(2S)-pyrrolidinyl]-5-thiazolyl]propionic acid]	36 nM
CO[C@@H]1C[C@@H](c2ncc(CCC(=O)O)s2)N(C(=O)Cc2cc(Cl)c(Nc3nc4ccccc4o3)cc2Cl)C1 [Example 124, 3-[2-[1-[4-(2-Benzoxazolyl)amino-2,5-dichlorophenyl]acetyl-(4R)-methoxy-(2S)-pyrrolidinyl]-5-thiazolyl]propionic acid]	76 nM
CO[C@@H]1C[C@@H](c2ncc(CCC(=O)O)s2)N(C(=O)Cc2cc(Cl)c(Nc3nc4ccccc4s3)cc2Cl)C1 [Example 125]	11 nM
O=C(O)CCn1nnc([C@@H]2CCCN2C(=O)Cc2cc(Cl)c(NC(=O)c3csc4ccccc34)cc2F)n1 [Example 126, 3-[5-[1-[[4-[(3-Benzo[b]thiophenylcarbonyl)amino]-5-chloro-2-fluorophenyl]acetyl]-(2S)-pyrrolidinyl]-2H-tetrazol-2-yl]propionic acid]	19 nM

The next lines start with the values.

Ki	Compound
17 nM	COC[C@@H]1CC[C@@H](c2ncc(CCC(=O)O)s2)N1C(=O)Cc1cc(Cl)c(NC(=O)c2csc3ccccc23)cc1F [Example 55, 3-[2-[1-[4-[(3-Benzo[b]thienylcarbonyl)amino]-5-chloro-2-fluorophenylacetyl]-(5S)-methoxymethyl-(2S)-pyrrolidinyl]-5-thiazolyl]propionic acid]
66 nM	COC[C@@H]1CC[C@@H](c2ncc(CCC(=O)O)s2)N1C(=O)Cc1cc(Cl)c(NC(=O)c2coc3ccccc23)cc1F [Example 56, 3-[2-[1-[4-[(1-Benzofuran-3-ylcarbonyl)amino]-5-chloro-2-fluorophenylacetyl]-(5S)-methoxymethyl-(2S)-pyrrolidinyl]-5-thiazolyl]propionic acid]
6 nM	O=C(O)CCc1cnc([C@@H]2C[C@@H]3CCCC[C@@H]3N2C(=O)Cc2cc(Cl)c(NC(=O)c3csc4ccccc34)cc2F)s1 [Example 61, 3-[2-[1-[4-[(3-Benzo[b]thienylcarbonyl)amino]-5-chloro-2-fluorophenylacetyl]-(2S)-octahydroindolyl]-5-thiazolyl]propionic acid]
4.1 nM	CCO[C@H]1CCN(C(=O)Cc2cc(Cl)c(NC(=O)c3cn(C)c4ccccc34)cc2F)[C@@H]1c1ncc(CCC(=O)O)s1 [Example 91, 3-[2-[1-[[5-Chloro-2-fluoro-4-(1-methyl-3-indolylcarbonylamino)phenyl]acetyl]-(3S)-ethoxy-(2S)-pyrrolidinyl]-5-thiazolyl]propionic acid]
10 nM	CCO[C@H]1CCN(C(=O)Cc2cc(Cl)c(NC(=O)c3cn(C)c4ccccc34)cc2Cl)[C@@H]1c1ncc(CCC(=O)O)s1 [Example 92, 3-[2-[1-[[2,5-Dichloro-4-(1-methyl-3-indolylcarbonylamino)phenyl]acetyl]-(3S)-ethoxy-(2S)-pyrrolidinyl]-5-thiazolyl]propionic acid]
2.9 nM	CCO[C@H]1CCN(C(=O)Cc2cc(Cl)c(NC(=O)c3csc4ccccc34)cc2F)[C@@H]1c1ncc(CCC(=O)O)s1 [Example 93]
6.2 nM	CCO[C@H]1CCN(C(=O)Cc2cc(Cl)c(NC(=O)c3csc4ccccc34)cc2Cl)[C@@H]1c1ncc(CCC(=O)O)s1 [Example 94]
4.2 nM	CCO[C@H]1CCN(C(=O)Cc2cc(Cl)c(NC(=O)c3coc4ccccc34)cc2F)[C@@H]1c1ncc(CCC(=O)O)s1 [Example 95]
6.4 nM	CCO[C@H]1CCN(C(=O)Cc2cc(Cl)c(NC(=O)c3coc4ccccc34)cc2Cl)[C@@H]1c1ncc(CCC(=O)O)s1 [Example 96]
9.2 nM	CCO[C@H]1CCN(C(=O)Cc2cc(Cl)c(NC(=O)c3cn(C)c4ccccc34)cc2F)[C@@H]1c1ncc(CCC(=O)O)o1 [Example 97, 3-[2-[1-[[5-Chloro-2-fluoro-4-(1-methyl-3-indolylcarbonylamino)phenyl]acetyl]-(3S)-ethoxy-(2S)-pyrrolidinyl]-5-oxazolyl]propionic acid]
11 nM	CCO[C@H]1CCN(C(=O)Cc2cc(Cl)c(NC(=O)c3cn(C)c4ccccc34)cc2Cl)[C@@H]1c1ncc(CCC(=O)O)o1 [Example 98, 3-[2-[1-[[2,5-Dichloro-4-(1-methyl-3-indolylcarbonylamino)phenyl]acetyl]-(3S)-ethoxy-(2S)-pyrrolidinyl]-5-oxazolyl]propionic acid]
7.7 nM	CCO[C@H]1CCN(C(=O)Cc2cc(Cl)c(NC(=O)c3csc4ccccc34)cc2Cl)[C@@H]1c1ncc(CCC(=O)O)o1 [Example 100]
9.8 nM	CCO[C@H]1CCN(C(=O)Cc2cc(Cl)c(NC(=O)c3coc4ccccc34)cc2F)[C@@H]1c1ncc(CCC(=O)O)o1 [Example 101]
17 nM	CCO[C@H]1CCN(C(=O)Cc2cc(Cl)c(NC(=O)c3coc4ccccc34)cc2Cl)[C@@H]1c1ncc(CCC(=O)O)o1 [Example 102]
8.4 nM	CCO[C@H]1CCN(C(=O)Cc2cc(Cl)c(Nc3nc4ccccc4s3)cc2Cl)[C@@H]1c1ncc(CCC(=O)O)s1 [Example 115, 3-[2-[1-[4-(2-Benzothiazolyl)amino-2,5-dichlorophenyl]acetyl-(3S)-ethoxy-(2S)-pyrrolidinyl]-5-thiazolyl]propionic acid]
1.6 nM	O=C(O)CCc1cnc([C@@H]2[C@@H](O)CCN2C(=O)Cc2cc(Cl)c(NC(=O)c3csc4ccccc34)cc2F)s1 [Example 122]
3.5 nM	O=C(O)CCc1cnc([C@@H]2[C@@H](O)CCN2C(=O)Cc2cc(Cl)c(NC(=O)c3csc4ccccc34)cc2Cl)s1 [Example 123]
